According to paper PMC3326533 (Cell, 2008):

Target: XPD (S. acidocaldarius) (Sulfolobus acidocaldarius, UniProt Q4JC68)
Conditions: ssDNA-stimulated; temperature and pH not stated here

Chain of XPD (S. acidocaldarius) (Q4JC68 whole entry): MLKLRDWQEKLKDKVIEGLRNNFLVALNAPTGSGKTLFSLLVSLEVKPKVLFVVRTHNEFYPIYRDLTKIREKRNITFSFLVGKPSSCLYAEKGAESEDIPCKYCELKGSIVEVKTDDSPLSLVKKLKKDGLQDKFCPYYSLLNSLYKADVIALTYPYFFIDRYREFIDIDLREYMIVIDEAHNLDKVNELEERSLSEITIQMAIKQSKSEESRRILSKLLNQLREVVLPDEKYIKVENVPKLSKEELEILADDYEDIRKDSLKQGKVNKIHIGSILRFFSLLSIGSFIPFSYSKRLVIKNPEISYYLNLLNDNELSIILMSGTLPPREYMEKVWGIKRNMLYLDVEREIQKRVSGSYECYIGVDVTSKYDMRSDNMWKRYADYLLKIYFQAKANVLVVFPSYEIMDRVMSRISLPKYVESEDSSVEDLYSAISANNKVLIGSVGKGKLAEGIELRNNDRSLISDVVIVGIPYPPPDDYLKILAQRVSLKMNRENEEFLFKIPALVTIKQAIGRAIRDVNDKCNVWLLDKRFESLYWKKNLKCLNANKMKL

For Nc1ncnc2c1ncn2[C@@H]1O[C@H](COP(=O)(O)OP(=O)(O)OP(=O)(O)O)[C@@H](O)[C@H]1O [ATP], the ATPase rate was “Plot of the ssDNA-stimulated ATPase activities of the indicated wild-type and mutant proteins”.
